Laboratory results: the CheMixHub viscosity set
“And” between values parts separate entries of the source, which are not always exact repeats. Identical values can stand only once.

Experiment: xn = mol fraction of the nth substance listed

O=C1CCCN1 + O
Conditions | viscosity [mPa·s]
298.15 K, 100 kPa, x1 = 0.0115 | 1.015
298.15 K, 100 kPa, x1 = 0.0189 | 1.099
298.15 K, 100 kPa, x1 = 0.0287 | 1.211
298.15 K, 100 kPa, x1 = 0.0388 | 1.328
298.15 K, 100 kPa, x1 = 0.0505 | 1.472
298.15 K, 100 kPa, x1 = 0.0598 | 1.591
298.15 K, 100 kPa, x1 = 0.0698 | 1.725
298.15 K, 100 kPa, x1 = 0.0803 | 1.875
298.15 K, 100 kPa, x1 = 0.0898 | 2.013
298.15 K, 100 kPa, x1 = 0.1007 | 2.241
298.15 K, 100 kPa, x1 = 0.1507 | 3.167
298.15 K, 100 kPa, x1 = 0.2024 | 4.25
298.15 K, 100 kPa, x1 = 0.2554 | 5.425
298.15 K, 100 kPa, x1 = 0.3052 | 6.531
298.15 K, 100 kPa, x1 = 0.3568 | 7.599
298.15 K, 100 kPa, x1 = 0.4091 | 8.579
298.15 K, 100 kPa, x1 = 0.4579 | 9.388
298.15 K, 100 kPa, x1 = 0.5569 | 10.69
298.15 K, 100 kPa, x1 = 0.6612 | 11.65
298.15 K, 100 kPa, x1 = 0.7216 | 12.08
298.15 K, 100 kPa, x1 = 0.8231 | 12.63
298.15 K, 100 kPa, x1 = 0.8637 | 12.82
298.15 K, 100 kPa, x1 = 0.9213 | 13.08
298.15 K, 100 kPa, x1 = 0.9301 | 13.11
298.15 K, 100 kPa, x1 = 0.9395 | 13.16
298.15 K, 100 kPa, x1 = 0.9491 | 13.18
298.15 K, 100 kPa, x1 = 0.9588 | 13.21
298.15 K, 100 kPa, x1 = 0.969 | 13.22
298.15 K, 100 kPa, x2 = 0.0105 | 13.3
304.15 K, 101.33 kPa, x2 = 0.1162 | 10.05
304.15 K, 101.33 kPa, x2 = 0.1885 | 9.771
304.15 K, 101.33 kPa, x2 = 0.2962 | 9.28
304.15 K, 101.33 kPa, x2 = 0.407 | 8.553
304.15 K, 101.33 kPa, x2 = 0.5061 | 7.697
304.15 K, 101.33 kPa, x2 = 0.5975 | 6.611
304.15 K, 101.33 kPa, x2 = 0.6831 | 5.353
304.15 K, 101.33 kPa, x2 = 0.8066 | 3.322
304.15 K, 101.33 kPa, x2 = 0.9019 | 1.885
308.15 K, 101 kPa, x1 = 0.0921 | 1.572
308.15 K, 101 kPa, x1 = 0.1915 | 2.467
308.15 K, 101 kPa, x1 = 0.315 | 3.573
308.15 K, 101 kPa, x1 = 0.4027 | 4.339
308.15 K, 101 kPa, x1 = 0.519 | 5.43
308.15 K, 101 kPa, x1 = 0.5927 | 6.176
308.15 K, 101 kPa, x1 = 0.6947 | 6.828
308.15 K, 101 kPa, x1 = 0.7877 | 7.493
308.15 K, 101 kPa, x1 = 0.9207 | 8.425
308.15 K, 101.33 kPa, x2 = 0.1162 | 8.702
308.15 K, 101.33 kPa, x2 = 0.1885 | 8.419
308.15 K, 101.33 kPa, x2 = 0.2962 | 7.958
308.15 K, 101.33 kPa, x2 = 0.407 | 7.333
308.15 K, 101.33 kPa, x2 = 0.5061 | 6.591
308.15 K, 101.33 kPa, x2 = 0.5975 | 5.665
308.15 K, 101.33 kPa, x2 = 0.6831 | 4.612
308.15 K, 101.33 kPa, x2 = 0.8066 | 2.917
308.15 K, 101.33 kPa, x2 = 0.9019 | 1.69
313.15 K, 101 kPa, x1 = 0.0803 | 1.274
313.15 K, 101 kPa, x1 = 0.1598 | 2.074
313.15 K, 101 kPa, x1 = 0.2476 | 3.053
313.15 K, 101 kPa, x1 = 0.3087 | 3.73
313.15 K, 101 kPa, x1 = 0.4 | 4.641
313.15 K, 101 kPa, x1 = 0.4668 | 5.207
313.15 K, 101 kPa, x1 = 0.5478 | 5.763
313.15 K, 101 kPa, x1 = 0.6434 | 6.298
313.15 K, 101 kPa, x1 = 0.7195 | 6.627
313.15 K, 101 kPa, x1 = 0.7991 | 6.924
313.15 K, 101 kPa, x1 = 0.8781 | 7.184
313.15 K, 101 kPa, x1 = 0.9585 | 7.432
313.15 K, 101.33 kPa, x2 = 0.1162 | 7.3
313.15 K, 101.33 kPa, x2 = 0.1885 | 7.066
313.15 K, 101.33 kPa, x2 = 0.2962 | 6.647
313.15 K, 101.33 kPa, x2 = 0.407 | 6.111
313.15 K, 101.33 kPa, x2 = 0.5061 | 5.506
313.15 K, 101.33 kPa, x2 = 0.5975 | 4.74
313.15 K, 101.33 kPa, x2 = 0.6831 | 3.873
313.15 K, 101.33 kPa, x2 = 0.8066 | 2.495
313.15 K, 101.33 kPa, x2 = 0.9019 | 1.483
318.15 K, 101.33 kPa, x2 = 0.1162 | 6.211
318.15 K, 101.33 kPa, x2 = 0.1885 | 5.985
318.15 K, 101.33 kPa, x2 = 0.2962 | 5.641
318.15 K, 101.33 kPa, x2 = 0.407 | 5.164
318.15 K, 101.33 kPa, x2 = 0.5061 | 4.656
318.15 K, 101.33 kPa, x2 = 0.5975 | 4.004
318.15 K, 101.33 kPa, x2 = 0.6831 | 3.308
318.15 K, 101.33 kPa, x2 = 0.8066 | 2.165
318.15 K, 101.33 kPa, x2 = 0.9019 | 1.313
323.15 K, 101.33 kPa, x2 = 0.1162 | 5.336
323.15 K, 101.33 kPa, x2 = 0.1885 | 5.14
323.15 K, 101.33 kPa, x2 = 0.2962 | 4.823
323.15 K, 101.33 kPa, x2 = 0.407 | 4.414
323.15 K, 101.33 kPa, x2 = 0.5061 | 3.987
323.15 K, 101.33 kPa, x2 = 0.5975 | 3.433
323.15 K, 101.33 kPa, x2 = 0.6831 | 2.845
323.15 K, 101.33 kPa, x2 = 0.8066 | 1.901
323.15 K, 101.33 kPa, x2 = 0.9019 | 1.173

OCCCCO + O
viscosity
Conditions | 298.15 K | 303.15 K | 308.15 K | 313.15 K | 318.15 K | 323.15 K
101 kPa, x1 = 0.0099 | – | 0.933 mPa·s | 0.836 mPa·s | 0.755 mPa·s | 0.687 mPa·s | 0.63 mPa·s
101 kPa, x1 = 0.0201 | – | 1.09 mPa·s | 0.971 mPa·s | 0.871 mPa·s | 0.788 mPa·s | 0.718 mPa·s
101 kPa, x1 = 0.0299 | – | 1.256 mPa·s | – | 0.989 mPa·s | 0.89 mPa·s | 0.806 mPa·s
101 kPa, x1 = 0.0399 | – | 1.429 mPa·s | 1.256 mPa·s | 1.113 mPa·s | 0.998 mPa·s | 0.899 mPa·s
101 kPa, x1 = 0.05 | 1.94 mPa·s | 1.625 mPa·s | 1.48 mPa·s and 1.424 mPa·s | 1.258 mPa·s | 1.14 mPa·s and 1.12 mPa·s | 1.004 mPa·s
101 kPa, x1 = 0.0599 | – | 1.838 mPa·s | 1.595 mPa·s | 1.4 mPa·s | 1.243 mPa·s | 1.11 mPa·s
101 kPa, x1 = 0.0699 | – | 2.057 mPa·s | 1.781 mPa·s | 1.559 mPa·s | 1.376 mPa·s | –
101 kPa, x1 = 0.075 | 2.65 mPa·s | – | 1.93 mPa·s | – | 1.44 mPa·s | –
101 kPa, x1 = 0.08 | – | 2.298 mPa·s | 1.982 mPa·s | 1.724 mPa·s | 1.518 mPa·s | 1.347 mPa·s
101 kPa, x1 = 0.0901 | – | 2.553 mPa·s | 2.192 mPa·s | 1.901 mPa·s | 1.666 mPa·s | 1.472 mPa·s
101 kPa, x1 = 0.1 | 3.397 mPa·s | 2.818 mPa·s and 2.803 mPa·s | 2.44 mPa·s and 2.404 mPa·s and 2.514 mPa·s | 2.079 mPa·s | 1.84 mPa·s and 1.817 mPa·s | 1.602 mPa·s
101 kPa, x1 = 0.15 | 5.39 mPa·s | – | 3.78 mPa·s | – | 2.68 mPa·s | –
101 kPa, x1 = 0.2 | 7.88 mPa·s | – | 5.24 mPa·s | – | 3.72 mPa·s | –
101 kPa, x1 = 0.2001 | 9.496 mPa·s | 7.867 mPa·s | – | – | – | –
101 kPa, x1 = 0.3007 | 13.82 mPa·s | 11.16 mPa·s | 9.319 mPa·s | – | – | –
101 kPa, x1 = 0.4 | 21.4 mPa·s | – | – | – | 9.25 mPa·s | –
101 kPa, x1 = 0.4006 | 21 mPa·s | 16.91 mPa·s | 13.99 mPa·s | – | – | –
101 kPa, x1 = 0.4977 | 29.42 mPa·s | 23.41 mPa·s | 19.16 mPa·s | – | – | –
101 kPa, x1 = 0.6 | 41.4 mPa·s | – | 25 mPa·s | – | 16.2 mPa·s | –
101 kPa, x1 = 0.6002 | 38.85 mPa·s | 30.89 mPa·s | 25.12 mPa·s | – | – | –
101 kPa, x1 = 0.6982 | 47.66 mPa·s | 38.2 mPa·s | 30.3 mPa·s | – | – | –
101 kPa, x1 = 0.7993 | 56.65 mPa·s | 44.81 mPa·s | 36.18 mPa·s | – | – | –
101 kPa, x1 = 0.8 | 60.5 mPa·s | – | 36.9 mPa·s | – | 23.8 mPa·s | –
101 kPa, x1 = 0.8969 | 63.9 mPa·s | 48.65 mPa·s | – | – | – | –
101 kPa, x1 = 0.9 | 68.4 mPa·s | – | 40.3 mPa·s | – | 27.1 mPa·s | –
101.3 kPa, x1 = 0.7917 | – | – | – | 29.65 mPa·s | – | –
101.3 kPa, x2 = 0.4531 | 33.95 mPa·s | – | – | – | – | –
101.3 kPa, x2 = 0.6513 | 18.65 mPa·s | – | – | – | – | –
